# DBAASP
# Where “and” joins values, the source holds several entries; their conditions need not be identical. Equal values may be shown once.
# Columns and labels:
# Test in all cases: ≥ marks a high value that may be exact or a test limit, other limits are often not marked, values filed in µg/mL are converted to µM
# [1] = tested on: Bacillus pumilus
# [2] = tested on: Bacillus cereus
# [3] = tested on: Staphylococcus aureus ATCC 2592
# [4] = tested on: Candida albicans ATCC 2002
# [5] = tested on: Pseudomonas aeruginosa
# [6] = tested on: Acinetobacter calcoaceticus
# [7] = tested on: Escherichia coli ATCC 25922
# [8] = tested on: Shigella dysenteriae
# [9] = tested on: Candida albicans
# [10] = tested on: Escherichia coli AS1.349
# [11] = tested on: Lactococcus lactis
# [12] = tested on: Staphylococcus aureus AS1.72
# [13] = tested on: Pseudomonas aeruginosa CMCCB 10104
# [14] = tested on: Salmonella enterica subsp. enterica serovar Enteritidis
# [15] = tested on: Staphylococcus aureus ATCC 25923
# [16] = tested on: Staphylococcus aureus ATCC 29213
# [17] = tested on: Escherichia coli
# [18] = tested on: Staphylococcus aureus
# [19] = tested on: Candida albicans ATCC 90028
# [20] = tested on: Pseudomonas aeruginosa ATCC 9027
# [21] = tested on: Micrococcus luteus
# [22] = tested on: Listeria innocua
# [23] = tested on: Staphylococcus aureus USA 100
# [24] = tested on: Staphylococcus aureus USA 300
# [25] = tested on: Escherichia coli ESBL 63103
# [26] = tested on: Candida albicans C627
# [27] = tested on: Pseudomonas aeruginosa LES400
# [28] = tested on: Pseudomonas aeruginosa 213
# [29] = tested on: Pseudomonas aeruginosa H103
# [30] = tested on: Staphylococcus aureus C623
# [31] = tested on: Enterococcus faecium mic80
# [32] = tested on: Escherichia coli PCM 2057
# [33] = tested on: Bacillus subtilis 168
# [34] = tested on: Candida albicans F7-39/IDE99
# [35] = tested on: Candida krusei CCM 8271
# [36] = tested on: Candida parapsilosis CCM 8260
# [37] = tested on: Staphylococcus epidermidis PCM 521
# [38] = tested on: Staphylococcus epidermidis PCM 2118
# [39] = tested on: Candida glabrata CCM 8270
# [40] = tested on: Staphylococcus aureus PMC 1650
# [41] = tested on: Staphylococcus aureus PCM 2054
# [42] = tested on: Escherichia coli B
# [43] = tested on: Enterococcus faecalis CGMCC 1.595
# [44] = tested on: Bacillus cereus AS1.126
# [45] = tested on: Enterococcus faecium CGMCC 1.2334
# [46] = tested on: Lactococcus lactis AS1.1690
# [47] = tested on: Pseudomonas aeruginosa CGMCC 1.860
compound,measurement,setting,value
CC[C@H](C)[C@H](NC(=O)[C@@H]1CCCN1C(=O)[C@H](Cc1ccccc1)NC(=O)[C@@H](N)Cc1ccccc1)C(=O)N[C@H](C(=O)NCC(=O)N[C@@H](CCCCN)C(=O)N[C@@H](CC(C)C)C(=O)N[C@@H](CC(C)C)C(=O)N[C@@H](CO)C(=O)NCC(=O)N[C@@H](CC(C)C)C(=O)N[C@@H](CO)C(=O)NCC(=O)N[C@@H](CC(C)C)C(=O)N[C@@H](CC(C)C)C(N)=O)C(C)C [FFPIVGKLLSGLSGLL],MIC,[1],3.01 µM
same,MIC,[2],18.1 µM
same,MIC,[3],1.51 µM
same,MIC,[4],1.51 µM
same,MIC,[5],3.01 µM
same,MIC,[6],18.1 µM
same,MIC,[7],1.51 µM
same,MIC,[8],3.01 µM
CC(C)C[C@H](NC(=O)[C@H](CC(C)C)NC(=O)CNC(=O)[C@H](Cc1ccccc1)NC(=O)[C@H](CCCN=C(N)N)NC(=O)[C@H](CC(C)C)NC(=O)[C@H](CCCCN)NC(=O)[C@H](CCCCN)NC(=O)[C@H](CC(C)C)NC(=O)[C@@H]1CCCN1C(=O)[C@H](CC(C)C)NC(=O)[C@@H](N)Cc1ccccc1)C(N)=O [FLPLKKLRFGLL],MIC,[9],6.25 µM
same,MIC,[10],12.5 µM
same,MIC,[2],3.13 µM
same,MIC,[11],3.13 µM
same,MIC,[5],12.5 µM
same,MIC,[12],3.13 µM
CC[C@H](C)[C@H](NC(=O)CN)C(=O)N[C@@H](Cc1ccccc1)C(=O)N[C@@H](CO)C(=O)N[C@@H](CC(C)C)C(=O)N[C@H](C(=O)N[C@@H](CCCCN)C(=O)N[C@H](C(=O)N[C@@H](C)C(=O)N[C@@H](C)C(=O)N[C@@H](CCCCN)C(=O)N[C@@H](Cc1ccccc1)C(=O)N[C@H](C(=O)NCC(=O)N[C@@H](CCCCN)C(=O)N[C@@H](CC(N)=O)C(=O)N[C@@H](CC(C)C)C(=O)N[C@@H](CC(C)C)C(=O)N[C@@H](CCCCN)C(=O)N[C@@H](CCC(N)=O)C(=O)N[C@@H](C)C(=O)NCC(=O)N[C@@H](CCCCN)C(=O)N[C@@H](C)C(=O)NCC(=O)N[C@H](C(=O)N[C@@H](CCC(=O)O)C(=O)N[C@@H](Cc1cnc[nH]1)C(=O)N[C@@H](CC(C)C)C(=O)N[C@@H](C)C(=O)N[C@H]1CSSC[C@@H](C(=O)O)NC(=O)[C@H](CCC(N)=O)NC(=O)[C@H](CC(N)=O)NC(=O)[C@H](CC(N)=O)NC(=O)[C@H](C)NC(=O)[C@H](CCCCN)NC1=O)C(C)C)C(C)C)[C@@H](C)O)[C@@H](C)CC [GIFSLIKTAAKFVGKNLLKQAGKAGVEHLACKANNQC],MIC,[1],0.646 µM
same,MIC,[2],1.94 µM
same,MIC,[3],0.323 µM
same,MIC,[4],0.646 µM
same,MIC,[5],12.9 µM
same,MIC,[6],3.23 µM
same,MIC,[7],3.23 µM
same,MIC,[8],1.94 µM
CC[C@H](C)[C@H](NC(=O)[C@H](CCCCN)NC(=O)[C@H](CCCCN)NC(=O)CNC(=O)[C@@H](NC(=O)CNC(=O)[C@H](CC(C)C)NC(=O)[C@@H](NC(=O)CNC(=O)[C@H](CO)NC(=O)[C@H](CC(C)C)NC(=O)[C@H](CC(C)C)NC(=O)CN)C(C)C)C(C)C)C(=O)N[C@H](C(=O)N[C@H]1CSSC[C@@H](C(=O)O)NC(=O)[C@H](CC(C)C)NC(=O)CNC(=O)[C@H](CO)NC(=O)[C@H](CC(C)C)NC(=O)CNC1=O)C(C)C [GLLSGVLGVGKKIVCGLSGLC],MIC,[13],5.27 µM
same,MIC,[14],≥ 64.9 µM
same,MIC,[4],2.63 µM
same,MIC,[15],5.27 µM
same,MIC,[16],11.5 µM
same,MIC,[7],2.63 µM and 5.73 µM
NCCCCC(N)C(=O)NC(Cc1ccc(O)cc1)C(=O)NC(CCCN=C(N)N)C(=O)O (stereo not given) [KYR],MIC,[17],1 µM
same,MIC,[18],1 µM
same,MIC,[19],≥ 100 µM
same,MIC,[20],> 100 µM
same,MIC,[14],1 µM
same,MIC,[21],2 µM
same,MIC,[22],1 µM
same,MIC,[23],≥ 100 µM
same,MIC,[24],≥ 100 µM
CC[C@H](C)[C@H](NC(=O)[C@H](CCCCN)NC(=O)[C@H](Cc1c[nH]c2ccccc12)NC(=O)[C@@H](NC(=O)[C@@H](N)CCCN=C(N)N)[C@@H](C)CC)C(=O)N[C@@H](Cc1c[nH]c2ccccc12)C(=O)N[C@@H](Cc1c[nH]c2ccccc12)C(=O)N[C@@H](CCCCN)C(=O)N[C@@H](CCCN=C(N)N)C(=O)O [RIWKIWWKR],MIC,[25],≥ 46.7 µM
same,MIC,[26],5.83 µM
same,MIC,[27],≥ 93.3 µM
same,MIC,[28],≥ 93.3 µM
same,MIC,[29],≥ 46.7 µM
same,MIC,[15],93.3 µM
same,MIC,[30],≥ 46.7 µM
same,MIC,[31],23.3 µM
CC[C@H](C)[C@H](NC(=O)[C@H](CCCCN)NC(=O)CNC(=O)[C@H](CC(C)C)NC(=O)[C@@H](NC(=O)[C@H](CCCCN)NC(=O)[C@H](CCCCN)NC(=O)[C@H](Cc1c[nH]c2ccccc12)NC(=O)[C@H](CC(N)=O)NC(=O)[C@@H](N)C(C)C)C(C)C)C(=O)N[C@H](C(=O)N[C@@H](CCCCN)C(=O)N[C@H](C(=O)N[C@@H](C)C(=O)N[C@@H](CCCCN)C(N)=O)C(C)C)[C@@H](C)CC [VNWKKVLGKIIKVAK],MIC,[32],7.25 µM
same,MIC,[33],0.8 µM
same,MIC,[34],9.1 µM
same,MIC,[18],14.3 µM
same,MIC,[35],29 µM
same,MIC,[36],29 µM
same,MIC,[37],7.25 µM
same,MIC,[38],3.62 µM
same,MIC,[39],29 µM
same,MIC,[5],15.8 µM
same,MIC,[40],14.5 µM
same,MIC,[41],29 µM
same,MIC,[42],1.7 µM
CC(C)[C@H](N)C(=O)N[C@@H](Cc1c[nH]c2ccccc12)C(=O)N[C@@H](CCCN=C(N)N)C(=O)N[C@@H](CCCCN)C(=O)N[C@@H](Cc1c[nH]c2ccccc12)C(=O)N[C@@H](CCCN=C(N)N)C(=O)N[C@@H](CCCN=C(N)N)C(=O)N[C@@H](Cc1ccccc1)C(=O)N[C@@H](Cc1c[nH]c2ccccc12)C(=O)N[C@@H](CCCCN)C(=O)N[C@@H](CCCN=C(N)N)C(=O)O [VWRKWRRFWKR],MIC,[43],6.25 µM
same,MIC,[10],3.13 µM
same,MIC,[44],3.13 µM
same,MIC,[45],6.25 µM
same,MIC,[46],6.25 µM
same,MIC,[12],6.25 µM
same,MIC,[47],1.56 µM
